Laboratory results taken from the NIST ThermoML archive (doi:10.1016/j.tca.2014.04.026).

Assay: molar heat capacity at constant pressure
Conditions: 101 kPa, Liquid, Small sample (50 mg) DSC

CCn1cc[n+](C)c1.N#C[C-](C#N)C#N [1-ethyl-3-methyl-1H-imidazolium tricyanomethanide]
Conditions | molar heat capacity at constant pressure [J/K/mol]
296.2 K | 357
300.2 K | 360
304.2 K | 362
308.2 K | 364
312.2 K | 366
316.2 K | 367
320.2 K | 369
324.2 K | 370
328.2 K | 372
332.2 K | 374
336.2 K | 377
340.2 K | 379
344.2 K | 382
348.2 K | 384
352.2 K | 387
356.2 K | 390
360.2 K | 393
364.2 K | 396
368.2 K | 399
372.2 K | 403
